From ChEMBL document CHEMBL3286381 (J Med Chem, 2014) come the findings set out here.

Assay [1] deals with T1, Ectonucleotide pyrophosphatase/phosphodiesterase family member 3 (Homo sapiens) (UniProt O14638).
T1 sequence (whole entry): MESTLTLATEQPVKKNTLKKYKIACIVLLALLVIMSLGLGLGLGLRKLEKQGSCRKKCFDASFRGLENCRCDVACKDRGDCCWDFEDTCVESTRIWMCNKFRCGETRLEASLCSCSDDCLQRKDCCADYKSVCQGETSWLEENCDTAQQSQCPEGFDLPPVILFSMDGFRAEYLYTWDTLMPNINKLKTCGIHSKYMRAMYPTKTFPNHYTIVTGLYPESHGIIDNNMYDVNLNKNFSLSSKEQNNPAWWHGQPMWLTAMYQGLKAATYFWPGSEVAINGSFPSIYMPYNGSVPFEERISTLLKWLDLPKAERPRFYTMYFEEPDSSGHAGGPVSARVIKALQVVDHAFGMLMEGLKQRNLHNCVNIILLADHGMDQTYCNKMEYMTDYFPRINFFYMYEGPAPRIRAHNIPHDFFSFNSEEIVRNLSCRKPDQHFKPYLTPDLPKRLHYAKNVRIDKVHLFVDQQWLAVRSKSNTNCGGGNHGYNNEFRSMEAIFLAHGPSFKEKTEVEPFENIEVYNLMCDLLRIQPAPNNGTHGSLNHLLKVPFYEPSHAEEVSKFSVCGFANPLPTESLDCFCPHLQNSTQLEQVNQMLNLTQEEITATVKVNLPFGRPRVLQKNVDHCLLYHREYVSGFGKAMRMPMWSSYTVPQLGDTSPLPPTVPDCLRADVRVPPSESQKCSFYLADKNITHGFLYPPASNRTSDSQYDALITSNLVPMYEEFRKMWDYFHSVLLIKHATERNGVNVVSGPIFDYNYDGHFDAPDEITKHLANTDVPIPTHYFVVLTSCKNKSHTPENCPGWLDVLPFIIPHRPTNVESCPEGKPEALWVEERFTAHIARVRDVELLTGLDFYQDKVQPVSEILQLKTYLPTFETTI
As to the kind of experiment: Inhibition of human NPP3 using pNP-TMP as substrate at 100 uM after 20 mins by reversed-phase HPLC analysis.

Another assay has as its target T2, P2Y purinoceptor 11 (Homo sapiens, UniProt Q96G91).
T2 sequence (Q96G91 whole entry): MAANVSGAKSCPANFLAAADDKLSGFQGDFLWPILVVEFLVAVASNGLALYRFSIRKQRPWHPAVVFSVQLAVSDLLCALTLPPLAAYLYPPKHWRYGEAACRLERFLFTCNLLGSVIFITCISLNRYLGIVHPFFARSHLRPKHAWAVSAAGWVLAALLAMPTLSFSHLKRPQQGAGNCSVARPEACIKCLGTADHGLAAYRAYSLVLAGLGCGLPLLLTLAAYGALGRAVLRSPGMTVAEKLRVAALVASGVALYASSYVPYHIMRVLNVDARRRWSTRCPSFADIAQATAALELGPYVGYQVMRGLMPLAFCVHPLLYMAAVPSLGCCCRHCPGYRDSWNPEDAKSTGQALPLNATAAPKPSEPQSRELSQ
Put plainly: Agonist activity at human P2Y11 receptor expressed in human 1321N1 cells assessed as increase of intracellular calcium level after 30 mins using fura-2 AM by fluorescence assay. The format is functional, cell-based.

Assay [2] addresses P2Y purinoceptor 2 (Homo sapiens) (UniProt P41231). Put plainly: Agonist activity at human P2Y2 receptor expressed in human 1321N1 cells assessed as increase of intracellular calcium level at 100 uM after 30 mins using fura-2 AM by fluorescence assay. The format is functional, cell-based.
The target is the same in assay [3]. Put plainly: Antagonist activity at human P2Y2 receptor expressed in human 1321N1 cells assessed as effect on UTP-induced effect. Format: cell-based.
The target of assay [4] is T3, Alkaline phosphatase, tissue-nonspecific isozyme (Homo sapiens) (UniProt P05186).
T3 sequence (whole entry): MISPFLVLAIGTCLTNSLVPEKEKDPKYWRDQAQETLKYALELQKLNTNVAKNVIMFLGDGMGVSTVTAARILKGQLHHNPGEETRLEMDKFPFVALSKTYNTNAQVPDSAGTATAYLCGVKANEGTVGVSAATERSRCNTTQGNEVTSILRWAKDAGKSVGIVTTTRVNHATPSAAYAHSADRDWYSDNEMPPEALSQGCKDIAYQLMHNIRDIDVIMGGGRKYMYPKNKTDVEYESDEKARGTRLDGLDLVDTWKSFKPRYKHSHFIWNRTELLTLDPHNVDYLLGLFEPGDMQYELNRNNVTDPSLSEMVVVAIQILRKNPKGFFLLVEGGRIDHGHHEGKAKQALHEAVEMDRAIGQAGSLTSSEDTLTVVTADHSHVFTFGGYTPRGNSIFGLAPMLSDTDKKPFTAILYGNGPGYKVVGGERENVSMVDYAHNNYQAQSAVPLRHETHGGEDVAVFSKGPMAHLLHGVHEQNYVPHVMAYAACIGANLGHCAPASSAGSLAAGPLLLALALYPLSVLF
As to the kind of experiment: Inhibition of TNAP (unknown origin) using ATP as substrate assessed as inorganic phosphate release at 100 uM after 15 mins relative to control.

The target in assay [5] is T4, P2Y purinoceptor 11 (Homo sapiens) (UniProt Q96G91).
T4 sequence (whole entry): T2 sequence (Q96G91 whole entry)
As to the kind of experiment: Agonist activity at human P2Y11 receptor expressed in human 1321N1 cells assessed as increase of intracellular calcium level up to 10 uM after 30 mins using fura-2 AM by fluorescence assay. The format is functional, cell-based.

The source made the active and inactive calls. The calls are words filed in the database; no cut-off is given here.

Chain of P2Y purinoceptor 2 (Homo sapiens) (P41231 whole entry): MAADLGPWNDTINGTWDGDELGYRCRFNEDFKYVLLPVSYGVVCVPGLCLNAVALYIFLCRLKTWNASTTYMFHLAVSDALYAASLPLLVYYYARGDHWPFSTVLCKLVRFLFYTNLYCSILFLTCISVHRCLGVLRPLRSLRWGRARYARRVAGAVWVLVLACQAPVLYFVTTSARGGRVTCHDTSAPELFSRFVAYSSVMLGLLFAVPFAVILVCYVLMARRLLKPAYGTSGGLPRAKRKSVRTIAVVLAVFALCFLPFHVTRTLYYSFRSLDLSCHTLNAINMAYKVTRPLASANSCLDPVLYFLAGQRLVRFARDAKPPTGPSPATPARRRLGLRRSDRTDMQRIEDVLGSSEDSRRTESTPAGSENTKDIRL

With `Nc1ncnc2c1ncn2[C@@H]1O[C@H](CO[P@@](O)(=S)OP(=O)(O)CP(=O)(O)O)[C@@H](O)[C@H]1O`, the inhibition in assay [1] came to 23%. Moreover, the concentration giving a half-maximal response (EC50) on P2Y purinoceptor 11 amounted to 0.9 µM.
Turning to `Nc1ncnc2c1ncn2[C@@H]1O[C@H](CO[P@](O)(=S)OP(=O)(O)C(Cl)(Cl)P(=O)(O)O)[C@@H](O)[C@H]1O`, the figures for the inhibition in assay [1] and in assay [4] were 23% and 17%, respectively. Besides, the outcome in assay [2] was inactive. Besides, the inhibition entry in assay [3] was “inactive”.
In the case of `Nc1ncnc2c1ncn2[C@@H]1O[C@H](CO[P@](O)(=S)OP(=O)(O)CP(=O)(O)O)[C@@H](O)[C@H]1O`, the inhibition in assay [1] turned out to be 23%. In assay [5], the outcome was inactive.
Take `Nc1ncnc2c1ncn2[C@@H]1O[C@H](COP(=O)(O)CP(=O)(O)OP(O)(O)=S)[C@@H](O)[C@H]1O`: the inhibition worked out at 23% in assay [1] and 8% in assay [4]. Further, the result in assay [2] was inactive. Moreover, the inhibition result in assay [3] was “inactive”.
Consider `Nc1ncnc2c1ncn2[C@@H]1O[C@H](CO[P@@](O)(=S)OP(=O)(O)C(Cl)(Cl)P(=O)(O)O)[C@@H](O)[C@H]1O`, for which, in assay [1], the inhibition amounted to 23%.
